The record followed here is ChEMBL document CHEMBL1201862, “PubChem BioAssay data set” (2004).

Holding throughout (test): NCI tumour cell line growth inhibition, 48 h
Assay [1] concerns A549.
For assay [2], the system named is SNB-19.
The subject of assay [3] is OVCAR-4.
The subject of assay [4] is SF-268.
Assay [5] deals with HOP-92.
Assay [6] concerns 786-0.
The subject of assay [7] is TK-10.
Assay [8] relates to RXF 393.
The subject of assay [9] is OVCAR-8.
Assay [10] concerns UACC-62.
The test system of assay [11] is COLO 205.
For assay [12], the system named is HL-60.
Assay [13] concerns NCI/ADR-RES.
Assay [14] concerns RPMI-8226.
In assay [15] the test system is SF-295.
Assay [16] relates to SK-OV-3.
Assay [17] relates to OVCAR-3.
In assay [18] the test system is MDA-MB-435.
For assay [19], the system named is LOX IMVI.
The test system of assay [20] is CCRF-CEM.

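The compound was tested at five concentrations on cells cultured in 96-well plates, with a 48-hour exposure period. The concentration for 50% growth inhibition is given as GI50.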 Calls of active or inactive are those of the source. Cut-off read from the data, not from the text of the source: active = GI50 up to about 1.1 µM and inactive = higher. Bounds are passed on as bounds.

For `Clc1ccc(-c2nn3c(-c4ccncc4)nnc3s2)cc1`, the GI50 in assay [1] was > 100 µM (inactive); in assay [2], 59.2 µM (inactive); in assay [3] it was > 100 µM (inactive); in assay [4], 37.4 µM (inactive); in assay [5], 41.6 µM (inactive); in assay [6], 11 µM (inactive). For the same compound, the GI50 in [7] was > 100 µM (inactive); in [8], 25.6 µM (inactive); in [9], > 100 µM (inactive); in assay [10], > 100 µM (inactive); in assay [11] it was > 100 µM (inactive); in [12], > 100 µM (inactive). For the same compound, the GI50 is > 100 µM (inactive) in assay [13]; > 100 µM (inactive) in assay [14]; 62.1 µM (inactive) in assay [15]; 40.1 µM (inactive) in [16]; > 100 µM (inactive) in [17]; > 100 µM (inactive) in assay [18]. Besides, the GI50 in assay [19] and in assay [20] was > 100 µM (inactive) in each case.
Regarding `CCCCCCCCSC1=C(Cl)C(=O)C(OC)=C(OC)C1=O`, the GI50 in assay [1] was 17.9 µM (inactive); in assay [2], 10.5 µM (inactive); in assay [3] it was 11.1 µM (inactive); in assay [4], 12.4 µM (inactive); in assay [5], 17 µM (inactive); in assay [6], 12.5 µM (inactive). Besides, the GI50 was 14.1 µM (inactive) in assay [7]; 13.2 µM (inactive) in assay [8]; 12 µM (inactive) in assay [9]; 10.3 µM (inactive) in assay [10]; 17.1 µM (inactive) in [11]; 2.11 µM (inactive) in [12]. In addition, the GI50 in assay [13] was 17.4 µM (inactive); in assay [14], 0.52 µM (active); in [15] it was 12.5 µM (inactive); in assay [16], 23.1 µM (inactive); in [17], 7.14 µM (inactive); in assay [18] it was 4.45 µM (inactive). Further, the figures for the GI50 in assay [19] and in [20] were 4.57 µM (inactive) and 5.68 µM (inactive), respectively.
For the compound `COc1ccccc1C(=O)Nc1ccc(Cl)c(C(=O)OC(C)C)c1`, the GI50 in assay [1] is 40.2 µM (inactive); in assay [2] it was > 65.3 µM (inactive); in assay [3], 42.4 µM (inactive); in assay [4], > 50.6 µM (inactive); in [5] it was 42.3 µM (inactive); in assay [6], 38 µM (inactive). The GI50 in assay [7] is > 80 µM (inactive); in [8] it was 25 µM (inactive); in [9] it was > 63 µM (inactive); in [10] it was 25.9 µM (inactive); in assay [11], > 61.5 µM (inactive); in [12], > 41.1 µM (inactive). Besides, the GI50 was 16.4 µM (inactive) in [13]; 18.3 µM (inactive) in assay [14]; 36.6 µM (inactive) in assay [15]; 99.5 µM (inactive) in assay [16]; > 46.1 µM (inactive) in assay [17]; > 100 µM (inactive) in assay [18]. The figures for the GI50 in assay [19] and in assay [20] were 43 µM (inactive) and 36.4 µM (inactive), respectively.
In the case of `CC1=NN(c2nc(N)nc(CSCc3nc(N)nc(N(C)C)n3)n2)C(C)(C)C1`, the GI50 in [1], in assay [2], in assay [3], in [4], in assay [5] and in [6] was > 100 µM (inactive) each time. In addition, the GI50 in assay [7], in assay [8], in [9], in assay [10], in assay [11] and in assay [12] was > 100 µM (inactive) each time. The GI50 in assay [13], in assay [14], in assay [15], in [16], in [17] and in [18] was > 100 µM (inactive) each time. In addition, the GI50 in assay [19] and in assay [20] was > 100 µM (inactive) each time.
In the case of `O=c1c2c(F)c(F)c(F)c(F)c2sc2nccn12`, the GI50 was 19.5 µM (inactive) in assay [1]; 19.8 µM (inactive) in assay [2]; 19.5 µM (inactive) in [3]; 18 µM (inactive) in [4]; 19.9 µM (inactive) in [5]; 15.2 µM (inactive) in assay [6]. In addition, the GI50 in [7] was 18.4 µM (inactive); in [8], 17.7 µM (inactive); in [9], 19.2 µM (inactive); in assay [10], 14.7 µM (inactive); in [11], 17.6 µM (inactive); in [12] it was 2.06 µM (inactive). For the same compound, the GI50 was 26.8 µM (inactive) in [13]; 16.7 µM (inactive) in assay [14]; 17.9 µM (inactive) in assay [15]; 18.9 µM (inactive) in assay [16]; 14.4 µM (inactive) in assay [17]; 14.9 µM (inactive) in [18]. Also, the GI50 in assay [19] was 12.3 µM (inactive); in [20], 11.3 µM (inactive).
On to `C#C[C@]1(O)CC[C@H]2[C@@H]3CCC4=C/C(=N\OCCN5CCCCC5)CC[C@]4(C)[C@H]3CC[C@@]21C`, for which the GI50 in assay [1] is 7.08 µM (inactive); in [2] it was 6.9 µM (inactive); in assay [3], 13.6 µM (inactive); in assay [4], 6.44 µM (inactive); in assay [5], 15 µM (inactive); in assay [6], 3.63 µM (inactive). Further, the GI50 in assay [7] is 7.28 µM (inactive); in [8] it was 2.86 µM (inactive); in assay [9], 8.02 µM (inactive); in assay [10], 3.32 µM (inactive); in assay [11], 2.12 µM (inactive); in assay [12] it was 3.19 µM (inactive). The GI50 was 3.52 µM (inactive) in [13]; 2.43 µM (inactive) in assay [14]; 3.56 µM (inactive) in [15]; 16 µM (inactive) in [16]; 5.15 µM (inactive) in assay [17]; 2.24 µM (inactive) in [18]. Also, the GI50 in assay [19] was 3.58 µM (inactive); in assay [20] it was 4.54 µM (inactive).
Regarding `COC(=O)c1c(C)[nH]c2c1cc(O)c1nc(C)c(C)nc12`, the GI50 in assay [1] was > 100 µM (inactive); in assay [2], > 100 µM (inactive); in assay [3], > 100 µM (inactive); in assay [4] it was 49.2 µM (inactive); in [5], 37.9 µM (inactive); in [6] it was > 100 µM (inactive). Further, the GI50 in [7] is 29.2 µM (inactive); in assay [8] it was 28 µM (inactive); in [9] it was > 100 µM (inactive); in assay [10], 43 µM (inactive); in assay [11], > 100 µM (inactive); in assay [12], 5.77 µM (inactive). The GI50 was > 100 µM (inactive) in assay [13]; > 100 µM (inactive) in assay [14]; 23.6 µM (inactive) in assay [15]; 70 µM (inactive) in [16]; > 100 µM (inactive) in [17]; > 100 µM (inactive) in [18]. Besides, the GI50 in assay [19] and in assay [20] was > 100 µM (inactive) throughout.
As to `OC1(c2ccc(Cl)cc2)c2c(ccc3c2OCO3)C2=NCCN21` (stereo not given), the GI50 in [1] is 70.3 µM (inactive); in [2], 73.6 µM (inactive); in assay [3] it was 45.8 µM (inactive); in [4] it was 45 µM (inactive); in assay [5] it was 16.7 µM (inactive); in [6] it was 62.2 µM (inactive). In addition, the GI50 in assay [7] is 15 µM (inactive); in assay [8], 26.7 µM (inactive); in assay [9], 67.5 µM (inactive); in assay [10], 19 µM (inactive); in assay [11] it was 18.3 µM (inactive); in assay [12], 38.8 µM (inactive). In addition, the GI50 in [13] is > 100 µM (inactive); in [14], 19.2 µM (inactive); in [15], 36.6 µM (inactive); in [16], 68.1 µM (inactive); in assay [17] it was 54.6 µM (inactive); in assay [18], 28.1 µM (inactive). Further, the GI50 in [19] is 30.5 µM (inactive); in assay [20] it was 37.9 µM (inactive).
Regarding `CCCCn1c(C)c(C(=O)CC)c(C(=O)NCCN2CCN(c3ccccc3Cl)CC2)c1C`, the GI50 in assay [1] is 16.3 µM (inactive); in [2], 15.8 µM (inactive); in assay [3], 17.6 µM (inactive); in assay [4], 18.2 µM (inactive); in assay [5] it was 14.1 µM (inactive); in assay [6], 16.1 µM (inactive). Moreover, the GI50 in [7] is 19.7 µM (inactive); in assay [8] it was 19.9 µM (inactive); in assay [9], 17.3 µM (inactive); in assay [10], 15.8 µM (inactive); in assay [11] it was 13.9 µM (inactive); in assay [12], 15.2 µM (inactive). For the same compound, the GI50 in [13] was 16 µM (inactive); in assay [14] it was 16.3 µM (inactive); in assay [15], 17.9 µM (inactive); in [16], 19.4 µM (inactive); in assay [17] it was 21.1 µM (inactive); in [18] it was 18.9 µM (inactive). Besides, the GI50 was 19.3 µM (inactive) in assay [19] and 55.1 µM (inactive) in assay [20].
Turning to `NC1CNC(=O)c2c(Cl)sc(Cl)c21` (stereo not given), the GI50 in assay [1], in assay [2], in assay [3], in assay [4], in assay [5] and in assay [6] was > 100 µM (inactive) throughout. Besides, the GI50 is > 100 µM (inactive) in [7]; > 100 µM (inactive) in assay [8]; > 100 µM (inactive) in assay [9]; > 100 µM (inactive) in [10]; > 100 µM (inactive) in assay [11]; > 10 µM (inactive) in assay [12]. For the same compound, the GI50 in assay [13], in assay [14], in assay [15], in assay [16], in assay [17] and in assay [18] was > 100 µM (inactive) in each case. The GI50 in assay [19] was > 100 µM (inactive); in [20], > 10 µM (inactive).
